Measurements reported in ChEMBL document CHEMBL5537118, “Synthesis of cinnamoyl tethered indoline derivatives with anti-inflammatory and antioxidant activities” (Eur J Med Chem, 2024).
pIC50: −log10 of the molar value. Active and inactive are the calls of the source. The rule behind the calls is not given here.

Assays:
[1] = system: Mus musculus; assay: Antiinflammatory activity in carrageenan-induced Kunming mouse model of paw edema assessed as paw volume at 1 mg/kg, ip pretreated for 1 hr followed by carrageenan administration and measured after 5 hrs by digital plethysmometer (reference value: 0.362 +/- 0.016 mL); assay type: functional; conditions: time 6 hrs
[2] = system: Mus musculus; assay: Antiinflammatory activity in carrageenan-induced Kunming mouse model of paw edema assessed as paw volume at 30 mg/kg, IG pretreated for 1 hr followed by carrageenan administration and measured after 3 hrs by digital plethysmometer (reference value: 0.365 +/- 0.044 mL); assay type: functional; conditions: time 4 hrs
[3] = system: RAW264.7; assay: Antiinflammatory activity in LPS-induced mouse RAW264.7 cells assessed as inhibition of NO production at 2 to 10 uM pretreated for 1 hr followed by LPS addition and measured after 24 hrs by griess reagent based assay; assay type: functional, cell-based; conditions: dose 2-10 µM, time 25.0 hrs
[4] = system: Mus musculus; assay: Antiinflammatory activity in carrageenan-induced Kunming mouse model of paw edema assessed as paw volume at 30 mg/kg, ip pretreated for 1 hr followed by carrageenan administration and measured after 5 hrs by digital plethysmometer (reference value: 0.362 +/- 0.016 mL); assay type: functional; conditions: time 6 hrs
[5] = system: Mus musculus; assay: Antiinflammatory activity in carrageenan-induced Kunming mouse model of paw edema assessed as paw volume at 10 mg/kg, ip pretreated for 1 hr followed by carrageenan administration and measured after 3 hrs by digital plethysmometer (reference value: 0.377 +/- 0.018 mL); assay type: functional; conditions: time 4 hrs
[6] = system: Mus musculus; assay: Antiinflammatory activity in carrageenan-induced Kunming mouse model of paw edema assessed as paw volume at 1 mg/kg, ip pretreated for 1 hr followed by carrageenan administration and measured after 1 hr by digital plethysmometer (reference value: 0.395 +/- 0.017 mL); assay type: functional; conditions: time 2 hrs
[7] = system: Mus musculus; assay: Antiinflammatory activity in carrageenan-induced Kunming mouse model of paw edema assessed as paw volume at 30 mg/kg, ip pretreated for 1 hr followed by carrageenan administration and measured after 1 hr by digital plethysmometer (reference value: 0.395 +/- 0.017 mL); assay type: functional; conditions: time 2 hrs
[8] = system: Mus musculus; assay: Antiinflammatory activity in carrageenan-induced Kunming mouse model of paw edema assessed as paw volume at 30 mg/kg, ip pretreated for 1 hr followed by carrageenan administration and measured immediately by digital plethysmometer (reference value: 0.116 +/- 0.042 mL); assay type: functional
[9] = system: Mus musculus; assay: Antiinflammatory activity in carrageenan-induced Kunming mouse model of paw edema assessed as edema inhibition at 30 mg/kg, ip pretreated for 1 hr followed by carrageenan administration and measured after 1 hr relative to control; assay type: functional; conditions: time 2 hrs
[10] = system: Mus musculus; assay: Antiinflammatory activity in carrageenan-induced Kunming mouse model of paw edema assessed as paw volume at 10 mg/kg, ip pretreated for 1 hr followed by carrageenan administration and measured after 1 hr by digital plethysmometer (reference value: 0.395 +/- 0.017 mL); assay type: functional; conditions: time 2 hrs
[11] = system: Mus musculus; assay: Antiinflammatory activity in carrageenan-induced Kunming mouse model of paw edema assessed as paw volume at 10 mg/kg, ip pretreated for 1 hr followed by carrageenan administration and measured after 5 hrs by digital plethysmometer (reference value: 0.362 +/- 0.016 mL); assay type: functional; conditions: time 6 hrs
[12] = system: RAW264.7; assay: Antiinflammatory activity in LPS-induced mouse RAW264.7 cells assessed as reduction in IL-6 level incubated for 24 hrs by ELISA; assay type: functional, cell-based
[13] = system: RAW264.7; assay: Inhibition of NF-kappaB activation in LPS-induced mouse RAW264.7 cells assessed as reduction in IkappaBalpha degradation at 0.5 to 2 uM by Western blot analysis; assay type: cell-based; conditions: dose 0.5-2 µM
[14] = system: Mus musculus; assay: Antiinflammatory activity in carrageenan-induced Kunming mouse model of paw edema assessed as edema inhibition at 30 mg/kg, IG pretreated for 1 hr followed by carrageenan administration and measured after 3 hrs relative to control; assay type: functional; conditions: po, time 4 hrs
[15] = system: Mus musculus; assay: Antiinflammatory activity in carrageenan-induced Kunming mouse model of paw edema assessed as paw volume at 1 mg/kg, ip pretreated for 1 hr followed by carrageenan administration and measured after 3 hrs by digital plethysmometer (reference value: 0.377 +/- 0.018 mL); assay type: functional; conditions: time 4 hrs
[16] = system: Mus musculus; assay: Antiinflammatory activity in carrageenan-induced Kunming mouse model of paw edema assessed as paw volume at 30 mg/kg, ip pretreated for 1 hr followed by carrageenan administration and measured after 3 hrs by digital plethysmometer (reference value: 0.377 +/- 0.018 mL); assay type: functional; conditions: time 4 hrs
[17] = system: RAW264.7; assay: Inhibition of NF-kappaB activation in LPS-induced mouse RAW264.7 cells assessed as inhibition of IkappaBalpha phosphorylation by measuring reduction in p-IkappaBalpha/IkappaBalpha expression at 0.5 to 2 uM by Western blot analysis; assay type: cell-based; conditions: dose 0.5-2 µM
[18] = system: Mus musculus; assay: Antioxidant activity in ip dosed carrageenan-induced Kunming mouse model of paw edema assessed as increase in HO-1 protein expression in paw tissue pretreated for 1 hr followed by carrageenan administration and measured after 5 hrs by Western blot analysis; assay type: functional, organism-based; conditions: dose 1-30 mg/kg, time 6.0 hrs

For `O=C(/C=C/c1ccc(O)c(O)c1)NCCCN1CCc2cc(Cl)ccc21`, the Activity [1] was 0.225 mL, the Activity [2] was 0.243 mL and the Activity [3] was “Active”. It also gave an Activity [4] of 0.137 mL, an Activity [5] of 0.175 mL and an Activity [6] of 0.32 mL. For the same molecule, the Activity [7] was 0.158 mL, the Activity [8] was 0.131 mL and the inhibition in vivo at 30 mg/kg [9] was 87.1%. For the same molecule, the Activity [10] was 0.189 mL, the Activity [11] was 0.155 mL and the Activity [12] was “Dose-Dependent Effect”. For the same molecule, the pIC50 ([12]; RAW264.7, 24 h) was 5.76, the inhibition [13] was “Active” and the inhibition in vivo at 30 mg/kg [14] was 50%. The Activity [15] was 0.267 mL, the Activity [16] was 0.143 mL and the inhibition [17] was “Active”. The Activity [18] was “Dose-Dependent Effect”.
